According to US20210100905A1, “APPLICATION OF COMPOUND OR TRADITIONAL CHINESE MEDICINE EXTRACT IN PREPARATION OF NUCLEIC ACID DELIVERY AGENT, AND RELATED PRODUCTS” (INSTITUTE OF BASIC MEDICAL SCIENCES CHINESE ACADEMY OF …, priority 2018, published 2021):

Tests used:
[1] = tested on: MRC-5 cell (lung fibroblast); assay: In vitro delivery of lipid nucleic acid mixture, RT-qPCR of intracellular small RNA; format: cell-based; conditions: single lipid; boiling method; FIGS. 78, 92, 103
Procedure: (§1) 3.1 NCI-N87 cell (gastric cancer cell), MRC-5 cell (lung fibroblast), A549 cell (lung cancer cell) were cultured to logarithmic growth phase, and then plated to a six-well plate at cell density of 1×10^6/2 mL medium/well; MRC-5 cell was cultured in Eagle's MEM medium (MEM, Gibco); A549 cell was cultured in Ham's F-12 medium (HyClone); NCI-N87 cell was cultured in RPMI-1640 medium (HyClone); followed by incubation overnight at 37° C., and the follow-up experiments were performed after the cells were attached to the walls.
(§2) 3.3 After co-incubation with the small RNA for 3 hours, the cells were washed 2-3 times with PBS. The cells were harvested with TRIzol lysis buffer, and the total RNA was extracted. The abundance of small RNA that entered cells was detected by RT-qPCR, and the localization of RNA was detected by fluorescence in situ hybridization; protocols of each detection method were as follows:
(§3) 1) The sRNA was reverse transcribed to cDNA: Reverse Transcription Kit (High-Capacity cDNA Reverse Transcription Kits, Applied Biosystems, cat. No. 4368813) was used to reverse transcribe sRNA into cDNA by stem-loop method, and the reverse transcription system was as follows: RNA template (150 ng/μl) 10 μl, 10×RT buffer, 2.0 μl, 25× dNTP Mix (100 mM) 0.8 μl, U6 RT stem-loop primer 2.0 μl, HJT-sRNA-RT-m7 stem-loop primer 2.0 μl, MultiScribe™ reverse transcriptase 1.0 μl, RNase inhibitor 1.0 μl, nuclease-free H2O 1.2 μl, loaded into a PCR reactor after brief centrifugation, the reaction conditions were as follows: (1) 25° C., 10 min; (2) 37° C., 120 min; (3) 85° C., 5 min; (4) 4° C., termination of the reaction. 20 μl RNase-free ddH2O was added to make up the final volume to 40 μl after the reaction. The stem-loop primer used in the reverse transcription process was synthesized by Beijing Tsingke Biotechnology Co., Ltd.
(§4) 2) Quantitative PCR amplification reaction: the qPCR reaction system has a total volume of 10 μl, containing: 5 μL 2×SYBR Green Master Mix, 0.5 μl forward primer ([…]), 0.5 μl reverse primer (10 μM), 1 μl cDNA by reverse transcription, 3 RNase-free dH2O. LightCycler 480 fluorescence quantitative PCR instrument was used, and the PCR reaction conditions were: 95° C. for 5 min for pre-denaturation, followed by PCR amplification cycle: (1) 95° C., 10 s; (2) 55° C., 10 s; (3) 72° C. , 20 s; a total of 40 cycles; 40° C. for 10 s in the end to cool down. Both the forward and reverse primers of the amplification reaction were designed and synthesized by Beijing Tsingke Biotechnology Co., Ltd.
(§5) 3) The relative expression level was calculated by 2-ΔCt method.
(§6) 100 μl lipid in diethyl ether solution was prepared, and grouped according to the lipid numbers shown in Table 1 (the lipid concentrations are shown in the table below). To the lipid solution was added 20 μl nucleic acid solution (HJT sRNA or siRNA) at the volume ratio of 5:1, and sonicated for after 3 min. The diethyl ether was removed by evaporation at 55° C., and then 100 μl DEPC water was added for hydration to give nucleic acid lipid mixture.
(§7) 100 μL of the nucleic acid solution (HJT sRNA or siRNA) was added to 2-5 μL of the lipid in chloroform (the concentration was shown in Table 1), mixed, and heated at 80-100° C. for 15-30 min to give nucleic acid lipid mixture.
(§8) 3.1.1 MRC-5 cell (pulmonary embryonic fibroblast), A549 cell (human lung adenocarcinoma cell), Caco-2 cell (human colon adenocarcinoma cell) (purchased from the Cell Resource Center of the Institute of Basic Medical Sciences, Chinese Academy of Medical Sciences) were cultured to logarithmic growth phase, then plated into 12-well plates at a cell density of 6×10^5/1 mL medium/well; MRC-5 and Caco-2 cells were cultured in Eagle's MEM medium (MEM, Gibco); A549 cells were cultured in Ham's F-12 medium (HyClone); followed by incubation overnight at 37° C., and the follow-up experiments were performed after the cells were attached to the walls. […]

[2] = tested on: A549 cell (human lung adenocarcinoma cell); assay: as above; format: cell-based; conditions: for delivery of HJT-sRNA-m7 double-stranded RNA into A549 cells (real-time PCR): single lipid prepared by boiling or reverse evaporation method, RNA 100 nM, FIGS. 76, 91, 96, 99, 104, 106, 107
Procedure: as §1, §2, §3, §4, §5, §6, §7, §8

[3] = In vivo delivery experiment of lipid nucleic acid mixture (Example 13); parameters: species or system C57 mice; conditions: oral administration, 6 hours; for delivery effect into mouse blood and tissues (heart, spleen, kidney or intestine) compared with POPC: FIG. 117a-146b, 100 μg lipid : 1 nmol sRNA
Procedure: 1. Experiment animals: C57 mice, male, approximately 6 weeks old, 20-24g. Mice were raised in the SPF room of the Animal Center of the Institute of Basic Medical Sciences of Chinese Academy of Medical Sciences. The mice were fasted for 12 hours before intragastric administration.
2. Preparation of the mixture of lipid and small RNA: the prepration was conducted on the basis of a dose of 100 μg lipid: lnmol single stranded small RNA PGY-sRNA-26 per mouse as follows: lnmol of each sRNA was dissolved with 500 μl DEPC water in a glass tube, 100 μg corresponding lipid solution No.33, No.35,No.37, No.42, No.43, No.44, No.45, No.46, No.47, No.48, No.49, No.50, No.51, No.52, No.53, No.54, No.55, No.56, No.57, No.58, No.59, No.60, No.61, No.62, No.65, No.66, No.67, No.68, No.69 or No.70 (lipid chloroform solution with a concentration as shown in Table 1-1) was added, pipetted to mix thoroughly. The solution was heated in water bath at 90° C. for 15 min, naturally cooled down, and was administered via gavage.
1) Tissue sampling and extraction of RNA: 6 hours after gavage in mice, 500 μl of blood was taken from the eyeball, and was added 1.5 ml Trizol Reagent LS to thoroughly mix and lyse. Tissue sampling: the mouse was sarcrified by breaking its neck, and the thoracic and abdominal cavities of the mouse was exposed to remove the heart/whole spleen/two kidneys/intestine (5 cm of upper end), which was immediately added 2 ml Trizol Reagent (purchased from Invitrogen) and homogenized until complete lysis with a tissue homogenizer.
2) Reverse transcription of sRNA to cDNA: Reverse Transcription Kit (High-Capacity cDNA Reverse Transcription Kits, Applied Biosystems, cat. no. 4368813), was used to reverse transcribe the total RNA to cDNA, and the reverse system was as follows: template RNA (150 ng/μL) 10 μL, 10× RT buffer, 2.0 μL, 25× dNTP Mix (100 mM) 0.8 μL, random primers 2.0 μL, the Multi Scribe™ reverse Transcriptase 1.0 RNase inhibitor 1.0 μL, nuclease-free H2O 3.2 μL. After a brief centrifugation, the reaction was loaded in a PCR reactor. The reaction conditions were as follows: (1) 25° C., 10 min; (2) 37° C., 120 min; (3) 85° C., 5 min; (4) 4° C., termination of the reaction. After the reaction, 20 μL RNase-free ddH2O was added to make up the final volume to 40 μL.
LightCycler 480 fluorescence quantitative PCR instrument was used, and the PCR reaction conditions were: 95° C. , 5 min for pre-denaturation, followed by the PCR amplification cycle: (1) 95° C., 10 s; (2) 55° C., 10 s; (3) 72° C., 20 s; a total of 40 cycles; 40° C. for 10 s in the end to cool down. The forward primer and reverse primer of the amplification reaction were designed and synthesized by Beijing Qing Ke New Industrial Biotechnology Co., Ltd. (U6 F primer: GTGCAGGGTCCGAGGT (SEQ ID NO: 24), PGY-sRNA-26F primer: […] (SEQ ID NO: 34), reverse primer miR all rev: GTGCACGCTCCGAGGT (SEQ ID NO: 26)).
3) The relative expression amount was calculated by the 2-ΔCt method.
The data were represented in the form of mean±SEM. The parameter difference between the experimental group and the control group was evaluated by unpaired t test. The data were statistically analyzed by GraphPad Prism software, and P<0.05 was considered statistically significant.

[4] = 100 μg lipid : 1 nmol sRNA per mouse, 90° C. 15 min

Molecule: CC/C=C\C/C=C\C/C=C\CCCCCCCC(=O)OC[C@@H](O)COP(=O)([O-])OCC[N+](C)(C)C [No. 37, (2-{[(2R)-2-hydroxy-3-[(9Z,12Z,15Z)-octadeca-9,12,15-trienoyloxy]propylphosphonato]oxy}ethyl) trimethylazanium]
- delivery of HJT-sRNA-m7 single-stranded RNA into MRC-5 cells (real-time PCR) [1]: delivered single-stranded RNA into A549 and MRC-5 cells
- delivery of HJT-sRNA-m7 single-stranded RNA into A549 cells (real-time PCR) ([2]; single lipid, boiling method, FIGS. 78, 92, 103): delivered single-stranded RNA into A549 and MRC-5 cells
- delivery effect into mouse blood and tissues (heart, spleen, kidney or intestine) compared with POPC [3]: significantly better than or equivalent to that of POPC
- delivery of small RNA (PGY-sRNA-26) into intestine [3, 4]: delivers small RNA

Molecule: CCCCCC/C=C\CCCCCCCC(=O)OC[C@H](COP(=O)(O)OCCN(C)C)OC(=O)CCCCCCC/C=C\CCCCCC [No. 60, 1,2-dipalmitoleoyl-sn-glycero-3-phospho-ethanolamine-N,N-dimethyl]
- delivery of HJT-sRNA-m7 double-stranded RNA into A549 cells (real-time PCR) [2]: delivered double-stranded RNA into A549 cells
- delivery effect into mouse blood and tissues (heart, spleen, kidney or intestine) compared with POPC [3]: significantly better than or equivalent to that of POPC
- delivery of small RNA (PGY-sRNA-26) into intestine [3, 4]: delivers small RNA

Molecule: CCCCCC/C=C\CCCCCCCC(=O)OC[C@H](COP(=O)(O)OCCN(C)C)OC(=O)CCCCCCC/C=C\CCCCCCCC [No. 62, 1-palmitoleoyl-2-oleoyl-sn-glycero-3-phospho-ethanolamine-N,N-dimethyl]
- delivery of HJT-sRNA-m7 double-stranded RNA into A549 cells (real-time PCR) [2]: delivered double-stranded RNA into A549 cells
- delivery effect into mouse blood and tissues (heart, spleen, kidney or intestine) compared with POPC [3]: significantly better than or equivalent to that of POPC
- delivery of small RNA (PGY-sRNA-26) into intestine [3, 4]: delivers small RNA

Molecule: CC/C=C\C/C=C\C/C=C\C/C=C\C/C=C\CCCC(=O)OCC(COC(=O)CCCCCCC/C=C\C/C=C\CCCCC)OC(=O)CCCCCCC/C=C\C/C=C\CCCCC (centres unmarked) [No. 68, Triglyceride (20:5/18:2/ 18:2)]
- delivery effect into mouse blood and tissues (heart, spleen, kidney or intestine) compared with POPC [3]: significantly better than or equivalent to that of POPC
- delivery of small RNA (PGY-sRNA-26) into heart [3, 4]: delivers small RNA
- delivery of small RNA (PGY-sRNA-26) into intestine [3, 4]: delivers small RNA
- delivery of small RNA (PGY-sRNA-26) into spleen [3, 4]: delivers small RNA

Molecule: Dilinolenin [No. 70]
- delivery effect into mouse blood and tissues (heart, spleen, kidney or intestine) compared with POPC [3]: significantly better than or equivalent to that of POPC
- delivery of small RNA (PGY-sRNA-26) into heart [3, 4]: delivers small RNA
- delivery of small RNA (PGY-sRNA-26) into spleen [3, 4]: delivers small RNA

Molecule: Mono- docosadienoin [No. 42]
- delivery effect into mouse blood and tissues (heart, spleen, kidney or intestine) compared with POPC [3]: significantly better than or equivalent to that of POPC
- delivery of small RNA (PGY-sRNA-26) into kidney [3, 4]: delivers small RNA
- delivery of small RNA (PGY-sRNA-26) into spleen [3, 4]: delivers small RNA
